# Like-named read-outs stand apart in the source and are kept apart here. Square brackets hold non-standard residues; d marks the D form. Peptide text beside a SMILES is read from it. * marks the point of attachment. Benzoyl(4-OH) = O=C(c1ccc(O)cc1)*; 4Abz = Nc1ccc(C(=O)O)cc1; Boc = CC(C)(C)OC(=O)*; Bz = O=C(c1ccccc1)*; NHOH = ON*
# Legend:
# [1] = biological target: T1, tadpole-derived collagenase (Aquarana catesbeiana, UniProt Q11133); assay: biochemical
# T1 construct: collagenase from tadpoles; from tissue
# T1 sequence (Q11133 89-384): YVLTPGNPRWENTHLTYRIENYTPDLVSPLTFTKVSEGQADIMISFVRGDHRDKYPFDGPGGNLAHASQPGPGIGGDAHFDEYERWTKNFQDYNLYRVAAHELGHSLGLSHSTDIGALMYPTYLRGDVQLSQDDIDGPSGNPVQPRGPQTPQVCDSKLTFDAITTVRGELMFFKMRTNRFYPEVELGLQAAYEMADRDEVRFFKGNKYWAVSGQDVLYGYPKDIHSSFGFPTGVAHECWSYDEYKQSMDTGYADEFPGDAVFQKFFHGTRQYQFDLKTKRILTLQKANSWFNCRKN
# Method: (§1) (1) Inhibitory activity against collagenases
# (§2) The inhibitory activity against human fibroblast collagenase (collagenase derived from human fibroblasts), tadpole-derived collagenase and bacteria (Clostridium)-derived collagenase was assayed in accordance with the method of Nagai [see Ensho, 4(2), 123 (1984)] using a fluorescence-labeledcollagen (FITC-derivatized bovine type I collagen).
# [2] = biological target: T2, human fibroblast collagenase (Homo sapiens, UniProt P03956); assay: Inhibitory activity against human fibroblast collagenase (method of Nagai, FITC-derivatized bovine type I collagen); format: biochemical
# T2 construct: collagenase derived from human fibroblasts; from tissue; host or cells: human fibroblasts
# T2 sequence (P03956 100-469): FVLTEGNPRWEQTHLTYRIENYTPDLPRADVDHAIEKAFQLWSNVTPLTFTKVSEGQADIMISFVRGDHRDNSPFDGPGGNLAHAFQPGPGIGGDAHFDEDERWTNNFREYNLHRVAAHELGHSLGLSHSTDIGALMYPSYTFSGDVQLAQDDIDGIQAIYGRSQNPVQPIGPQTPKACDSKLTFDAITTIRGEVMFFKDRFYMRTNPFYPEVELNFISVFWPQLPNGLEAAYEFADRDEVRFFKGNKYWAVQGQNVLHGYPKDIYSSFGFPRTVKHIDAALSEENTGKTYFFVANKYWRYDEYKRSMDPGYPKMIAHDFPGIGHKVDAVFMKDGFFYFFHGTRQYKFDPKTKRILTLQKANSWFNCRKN
# Method: as §1, §2
# thermolysin = biological target: T3, thermolysin (Bacillus thermoproteolyticus, UniProt P00800); assay: Inhibitory activity against thermolysin (method of Laskowski, thermally denatured casein substrate); format: biochemical; conditions: for inhibition at 4000 µM: at 4.0 × 10^-3 M
# T3 sequence (P00800 233-548): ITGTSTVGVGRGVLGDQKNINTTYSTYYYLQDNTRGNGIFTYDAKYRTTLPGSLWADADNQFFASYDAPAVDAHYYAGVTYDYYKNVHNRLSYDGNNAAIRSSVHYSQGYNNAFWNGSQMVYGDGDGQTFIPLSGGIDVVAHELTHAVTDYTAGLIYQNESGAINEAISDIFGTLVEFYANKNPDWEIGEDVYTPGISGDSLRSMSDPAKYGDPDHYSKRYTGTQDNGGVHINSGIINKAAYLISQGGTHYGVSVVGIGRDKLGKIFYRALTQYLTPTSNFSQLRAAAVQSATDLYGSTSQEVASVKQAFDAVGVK
# Method: (§3) (3) Inhibitory activity against thermolysin, trypsin and α-chymotrypsin
# (§4) This was assayed in accordance with the method of Laskowski [see Meth. Enzymol., 2, 8 (1955)] using a thermally denatured casein as substrate for the respective enzymes (i.e. thermolysin, trypsin and α-chymotrypsin).
# α-chymotrypsin = α-chymotrypsin (Bos taurus, UniProt P00766); assay: Inhibitory activity against α-chymotrypsin (method of Laskowski, thermally denatured casein substrate); format: biochemical; conditions: for inhibition at 4000 µM: at 4.0 × 10^-3 M
# Method: as §3, §4
# mice = assay: Acute toxicity test (LD50) in mice; format: in vivo
# Description: The toxicity of the new peptide compounds of this invention is as follows:
# Acute toxicity test (LD50) in mice
# [3] = system: sword bean-derived urease; assay: Inhibitory activity against urease (method of Kobashi et al.); format: biochemical; conditions: at 4.0 × 10^-3 M
# Method: (2) Inhibitory activity against urease
# The inhibitory activity against urease was assayed in accordance with the method of Kobashi et al. [see Biochem. Biophys.
# [4] = system: bacteria (Clostridium)-derived collagenase; assay: Inhibitory activity against bacteria (Clostridium)-derived collagenase (method of Nagai, FITC-derivatized bovine type I collagen); format: biochemical
# Method: as §1, §2
# trypsin = assay: Inhibitory activity against trypsin (method of Laskowski, thermally denatured casein substrate); format: biochemical
# Method: as §3, §4
# [5] = read-out: IC50 Human fibroblast collagenase
structure (smiles),measurement,setting,value
"CC(C)C[C@H](NC(=O)[C@@H]1CCCN1C(=O)CNC(=O)c1ccc(N)cc1)C(=O)N[C@@H](C)C(=O)NO [Example 41, AcOH.ABAGlyProLeuAlaNHOH] (H-[4Abz]GPLA-{NHOH})",IC50,[1],4 µM
same,IC50,[2]; [5],3.7 µM
same,inhibition at 20 µM,thermolysin; at 2.0 × 10^-5 M,4%
same,inhibition at 20 µM,α-chymotrypsin; at 2.0 × 10^-5 M,27.3%
same,LD50 Intraperitoneal administration,mice,> 2000 mg/kg
same,LD50 Intravenous administration,mice,> 200 mg/kg
"CC(C)C[C@H](NC(=O)[C@@H]1CCCN1C(=O)CNC(=O)c1ccccc1)C(=O)N[C@@H](C)C(=O)NO [Example 34, BzGlyProLeuAlaNHOH] (Bz-GPLA-{NHOH})",IC50,[1],7.7 µM
same,IC50,[2],2.7 µM
same,inhibition at 4000 µM,thermolysin,35%
same,inhibition at 200 µM,α-chymotrypsin; at 2.0 × 10^-4 M,0%
"CC(C)C[C@@H](NC(=O)[C@@H](CC(C)C)NC(=O)[C@@H]1CCCN1C(=O)CN1C(=O)c2ccccc2C1=O)C(=O)NO [Example 40, PTHGlyPro-D-Leu-D-LeuNHOH]",IC50,[1]; read-out: IC50 Tadpole collagenase,3.1 µM
same,IC50,[2]; [5],3.6 µM
same,inhibition at 4000 µM,thermolysin,32.2%
same,Inhibition (%) Urease,[3],3.3%
same,Inhibition (%) Bacterial collagenase,[4]; at 4.0 × 10^-3 M,20.7%
same,inhibition at 10000 µM,α-chymotrypsin; at 1.0 × 10^-2 M,22.3%
same,Inhibition (%) Trypsin,trypsin; at 1.0 × 10^-2,21.6%
"CC(C)C[C@H](NC(=O)[C@@H]1CCCN1C(=O)CNC(=O)OC(C)(C)C)C(=O)N[C@H](C(=O)NO)C(C)C [Example 18, BocGlyProLeuValNHOH] (Boc-GPLV-{NHOH})",IC50,[1],9.8 µM
same,IC50,[2]; [5],3.1 µM
same,inhibition at 10100 µM,thermolysin; at 1.01 × 10^-2 M,50%
same,inhibition at 4000 µM,α-chymotrypsin,0%
"CC(C)C[C@@H](NC(=O)[C@@H]1CCCN1C(=O)CNC(=O)c1ccccc1)C(=O)N[C@H](C)C(=O)NO [Example 35, BzGlyPro-D-Leu-D-AlaNHOH] (Bz-GP[dL][dA]-{NHOH})",IC50,[1],3.1 µM
same,IC50,[2],6.4 µM
same,inhibition at 4000 µM,thermolysin,38%
same,inhibition at 100 µM,α-chymotrypsin; at 1.0 × 10^-4 M,12.8%
CC(C)C[C@@H](NC(=O)[C@@H]1CCCN1C(=O)CNC(=O)c1ccc(N)cc1)C(=O)N[C@H](C)C(=O)NO [Example 6] (H-[4Abz]GP[dL][dA]-{NHOH}; N-terminus and C-terminus assumed),IC50,[2]; [5],1.28 µM
same,inhibition at 4000 µM,thermolysin,26.8%
same,Inhibition (%) Urease,[3],2.0%
same,Inhibition (%) Bacterial collagenase,[4]; at 2.0 × 10^-4 M,7.1%
same,inhibition at 2000 µM,α-chymotrypsin; at 2.0 × 10^-3 M,26.4%
same,LD50 Intraperitoneal administration,mice,> 2000 mg/kg
same,LD50 Intravenous administration,mice,> 200 mg/kg
same,Inhibition (%) Trypsin,trypsin; at 2.0 × 10^-3,6.5%
"CC(C)C[C@@H](NC(=O)[C@@H]1CCCN1C(=O)CNC(=O)c1ccc(O)cc1)C(=O)N[C@H](C)C(=O)NO [Example 7, p-Hydroxybenzoyl-glycyl-L-prolyl-D-leucyl-D-alanylhydroxamic acid] ({Benzoyl(4-OH)}-GP[dL][dA]-{NHOH})",IC50,[1],1.05 µM
same,IC50,[2]; [5],1.18 µM
same,inhibition at 4000 µM,thermolysin,60.4%
same,inhibition at 4000 µM,α-chymotrypsin,22.3%
same,LD50 Intraperitoneal administration,mice,> 2000 mg/kg
same,LD50 Intravenous administration,mice,> 200 mg/kg

# Reference: US5100874A, “Hydroxamic acid tetrapeptide derivatives” (Fuji Yakuhin Kogyo Kabushiki Kaisha, priority 1987, dated 1992)
